Data on 23 molecules can be found in patent US7442802B2, “Cyclooxygenase-2 selective inhibitors, compositions and methods of use” (NitroMed, Inc., priority 2002, dated 2008).

What is called inhibition is the change of the read-out against control, counted positive when it falls.

One test deals with T1, COX-1 (Homo sapiens, UniProt P23219).
T1 construct: endogenous in cells; host or cells: heparinised human whole blood from donors, stimulated with the calcium ionophore A23187
Description: Human COX-1 enzyme activity in human whole blood (A23187-stimulated, thromboxane B2 EIA). The format is cell-based. Conditions: for inhibition at 100 µM: read-out: COX-1 Inhibition (% at 100 μM). Here is the method:
(§1) The blood was transported to the laboratory on ice packs and used within 1.5 hours of collection. Upon receipt in the laboratory, the blood was allowed to come to room temperature for 15 minutes prior to distribution in 1 mL aliquots per well of 24 well tissue culture plates. […] Test compounds were dissolved in DMSO, at 1000 fold the final desired concentration, and further diluted, as indicated, in DMSO. One μL of each dilution of the test compound was added per well, in duplicate wells; wells not receiving test compound (e.g., basal, background or control wells) received 1 μL DMSO. […] Louis, Mo., Catalogue No. […] Louis, Mo., Catalogue No. […] (Again, basal, background or control wells not stimulated with A23187 received 1 μL of DMSO.) At 5 hours after the addition of the test compound, all incubations were terminated by placement on ice and the addition of 2 mM EGTA (100 μL of 20 mM EGTA, tetrasodium, in PBS (phosphate buffered saline) without Ca^++ and Mg^++, pH 7.2)). […] One hundred μL of plasma was removed from each blood sample and added to 1 mL of methanol in new 15 mL polypropylene centrifuge tubes, vortexed, and stored overnight at -20° C. […] The samples were assayed for thromboxane B2 using EIA kits supplied by Cayman Chemical Co. […] The % inhibition for COX-1 and COX-2 enzyme activity in human whole blood by the test compounds, at the indicated concentrations, are given in Table 1.

The target in a further test is T2, COX-2 (Homo sapiens, UniProt P35354).
T2 construct: To induce COX-2, lipopolysaccharide (LPS) from E. coli; endogenous in cells; host or cells: heparinised human whole blood from donors, with COX-2 induced by E. coli LPS
T2 sequence (P35354 18-604): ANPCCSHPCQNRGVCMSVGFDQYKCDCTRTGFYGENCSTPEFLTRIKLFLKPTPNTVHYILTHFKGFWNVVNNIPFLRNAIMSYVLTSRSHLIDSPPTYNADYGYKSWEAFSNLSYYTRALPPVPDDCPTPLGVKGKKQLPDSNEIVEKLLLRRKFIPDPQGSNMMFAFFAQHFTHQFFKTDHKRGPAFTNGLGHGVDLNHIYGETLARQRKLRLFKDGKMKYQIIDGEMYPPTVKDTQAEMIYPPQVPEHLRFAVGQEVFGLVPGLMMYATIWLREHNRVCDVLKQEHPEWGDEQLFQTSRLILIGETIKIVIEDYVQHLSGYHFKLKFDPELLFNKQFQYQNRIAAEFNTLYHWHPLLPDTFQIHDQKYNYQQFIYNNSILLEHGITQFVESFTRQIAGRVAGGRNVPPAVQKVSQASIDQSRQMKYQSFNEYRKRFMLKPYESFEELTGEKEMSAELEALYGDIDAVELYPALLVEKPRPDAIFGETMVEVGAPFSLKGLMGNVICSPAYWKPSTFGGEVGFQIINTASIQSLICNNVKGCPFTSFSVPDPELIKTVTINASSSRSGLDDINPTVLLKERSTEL
Description: Human COX-2 enzyme activity in human whole blood (LPS-induced, thromboxane B2 EIA). The following applies: for inhibition at 1 µM: read-out: COX-2 Inhibition (% at 1 μM); for inhibition at 10 µM: read-out: COX-2 Inhibition (% at 10 μM). Type of test: cell-based. Here is the method:
as §1

[1] abbreviates: 100 μM, human whole blood, A23187 stimulation.
Where [2] appears, read: 1 μM, human whole blood, LPS induction.
The mark [3] stands for this setting: 10 μM, human whole blood, LPS induction.

Like-named read-outs stand apart in the source and are kept apart here.

T1 sequence (P23219 24-599): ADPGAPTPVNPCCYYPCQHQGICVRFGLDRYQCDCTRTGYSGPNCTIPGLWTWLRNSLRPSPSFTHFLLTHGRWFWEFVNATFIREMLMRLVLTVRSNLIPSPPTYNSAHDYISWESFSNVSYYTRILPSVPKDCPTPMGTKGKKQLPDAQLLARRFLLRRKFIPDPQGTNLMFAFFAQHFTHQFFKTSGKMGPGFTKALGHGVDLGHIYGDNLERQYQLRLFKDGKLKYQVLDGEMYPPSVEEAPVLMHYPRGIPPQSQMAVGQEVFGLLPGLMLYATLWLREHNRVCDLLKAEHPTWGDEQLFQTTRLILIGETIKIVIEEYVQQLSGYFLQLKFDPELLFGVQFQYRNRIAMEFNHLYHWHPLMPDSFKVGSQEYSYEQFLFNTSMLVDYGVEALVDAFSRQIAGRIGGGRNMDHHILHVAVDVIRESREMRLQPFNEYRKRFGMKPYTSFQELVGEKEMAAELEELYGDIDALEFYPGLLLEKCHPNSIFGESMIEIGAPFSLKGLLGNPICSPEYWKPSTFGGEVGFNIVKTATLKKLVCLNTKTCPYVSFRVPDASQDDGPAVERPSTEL

As to `COc1ccc(-n2nc(C(=O)CCCO)cc2-c2ccc(S(C)(=O)=O)cc2)cc1` [Example 24d, 4-Hydroxy-1-(1-(4-methoxyphenyl)-5-(4-(methylsulfonyl)phenyl)-pyrazol-3-yl)butan-1-one], at COX-1 (setting [1]), the inhibition at 100 µM is 85%. The inhibition at 1 µM at COX-2 (setting [2]) was 50%. For the same molecule, at COX-2 (setting [3]), the inhibition at 10 µM was found to be 85%.
Regarding `CS(=O)(=O)c1ccc(-c2cc(COc3cccc(CO)c3)nn2C2CCCCC2)cc1` [Example 17b, 1-(1-Cyclohexyl-3-((3-(hydroxymethyl)phenoxy)methyl)pyrazol-5-yl)-4-(methylsulfonyl)benzene], the inhibition at 100 µM at COX-1 (setting [1]) worked out at 80%. Also, at COX-2 (setting [2]), the inhibition at 1 µM was found to be 135%. Also, on COX-2 (setting [3]), the inhibition at 10 µM stood at 100%.
Regarding “4-(5-(4-Chlorophenyl)-3-((3-hydroxypropoxy)methyl)pyrazolyl)benzenesulfonamide [Example 28a]”, the “COX-1 Inhibition (% at 100 μM)” value at COX-1 (setting [1]) came out at 30%. The “COX-2 Inhibition (% at 1 μM)” value on COX-2 (setting [2]) is given as 30%. Also, the “COX-2 Inhibition (% at 10 μM)” value on COX-2 (setting [3]) was 55%.
Regarding `NS(=O)(=O)c1ccc(-c2c(-c3ccccc3)noc2COCCO[N+](=O)[O-])cc1` [Example 27b], the “COX-1 Inhibition (% at 100 μM)” value at COX-1 (setting [1]) was 65%. Further, at COX-2 (setting [2]), the “COX-2 Inhibition (% at 1 μM)” value turned out to be 50%. The “COX-2 Inhibition (% at 10 μM)” value at COX-2 (setting [3]) is on record as 100%.
For `CS(=O)(=O)c1ccc(-c2cc(COCCCO)nn2-c2ccc(Cl)cc2)cc1` [Example 7d, 1-(1-(4-Chlorophenyl)-3-((3-hydroxypropoxy)methyl)pyrazol-5-yl)-4-(methylsulfonyl)benzene], the inhibition at 100 µM at COX-1 (setting [1]) amounted to 80%. For the same molecule, the inhibition at 1 µM at COX-2 (setting [2]) is 25%. Moreover, the inhibition at 10 µM on COX-2 (setting [3]) is 95%.
For `NS(=O)(=O)c1ccc(-c2c(-c3ccccc3)noc2COCCCO[N+](=O)[O-])cc1` [Example 26b], on COX-1 (setting [1]), the “COX-1 Inhibition (% at 100 μM)” value amounted to 70%. Besides, the “COX-2 Inhibition (% at 1 μM)” value on COX-2 (setting [2]) is recorded as 55%. Moreover, the “COX-2 Inhibition (% at 10 μM)” value on COX-2 (setting [3]) came to 100%.
Take `CS(=O)(=O)c1ccc(-c2cc(CNCCO)nn2C2CCCCC2)cc1` [Example 38c, 1-(1-Cyclohexyl-3-(((2-hydroxyethyl)amino)methyl)pyrazol-5-yl)-4-(methylsulfonyl)benzene]: the inhibition at 100 µM at COX-1 (setting [1]) came to 10%. Further, the inhibition at 1 µM at COX-2 (setting [2]) was determined as 15%. Also, at COX-2 (setting [3]), the inhibition at 10 µM is 25%.
In the same order, the values of `CS(=O)(=O)c1ccc(-c2cc(/C=C/CO[N+](=O)[O-])nn2C2CCCCC2)cc1` [Example 41, 1-(3-((1E)-3-(Nitrooxy)prop-1-enyl)-1-cyclohexylpyrazol-5-yl)-4-(methylsulfonyl)benzene] are 40%, 0% and 45%.
As for `CC(CCOCc1cc(-c2ccc(S(C)(=O)=O)cc2)n(-c2ccccc2)n1)O[N+](=O)[O-]` (stereo not drawn) [Example 19c, 4-(Methylsulfonyl)-1-(3-((3-(nitrooxy)butoxy)methyl)-1-phenylpyrazol-5-yl)benzene], the inhibition at 100 µM on COX-1 (setting [1]) was determined as 35%. The inhibition at 1 µM on COX-2 (setting [2]) was determined as 20%. The inhibition at 10 µM on COX-2 (setting [3]) was found to be 30%.
Turning to `CS(=O)(=O)c1ccc(-c2cc(C(=O)CCCO)nn2-c2ccc(C(F)(F)F)cc2)cc1` [Example 23d, 4-Hydroxy-1-(5-(4-(methylsulfonyl)phenyl)-1-(4-(trifluoromethyl)-phenyl)pyrazol-3-yl)butan-1-one], the inhibition at 100 µM on COX-1 (setting [1]) is -20%. Besides, on COX-2 (setting [2]), the inhibition at 1 µM stood at 0%. Further, the inhibition at 10 µM at COX-2 (setting [3]) amounted to 10%.
As for “4-(5-(Chlorophenyl)-3-((3-(nitrooxy)propoxy)methyl)benzene-sulfonamide [Example 36c]”, the “COX-1 Inhibition (% at 100 μM)” value at COX-1 (setting [1]) was 55%. For the same molecule, the “COX-2 Inhibition (% at 1 μM)” value on COX-2 (setting [2]) turned out to be 40%. For the same molecule, the “COX-2 Inhibition (% at 10 μM)” value at COX-2 (setting [3]) was found to be 80%.
In the case of `CS(=O)(=O)c1ccc(-c2cc(C(F)(F)OCCCO[N+](=O)[O-])nn2-c2ccccc2)cc1` [Example 6f, 1-(3-(Difluoro(3-(nitrooxy)propoxy)methyl)-1-phenylpyrazol-5-yl)-4-(methylsulfonyl)benzene], the inhibition at 100 µM on COX-1 (setting [1]) was found to be 80%. Also, the inhibition at 1 µM at COX-2 (setting [2]) was 50%. Also, the inhibition at 10 µM at COX-2 (setting [3]) was 95%.
In the same order, the values of `CS(=O)(=O)c1ccc(-c2cc(CO)nn2C2CCCCCC2)cc1` [Example 2c, 1-(1-Cycloheptyl-3-(hydroxymethyl)pyrazol-5-yl)-4-(methylsulfonyl)benzene] are 40%, 10% and 25%.
With `NS(=O)(=O)c1ccc(-c2c(-c3ccccc3)noc2COCC(F)(F)C(F)(F)CO)cc1` [Example 33a], the “COX-1 Inhibition (% at 100 μM)” value on COX-1 (setting [1]) is recorded as 75%. Also, the “COX-2 Inhibition (% at 1 μM)” value at COX-2 (setting [2]) is recorded as 40%. Also, on COX-2 (setting [3]), the “COX-2 Inhibition (% at 10 μM)” value was found to be 100%.
In the same order, the values of `NS(=O)(=O)c1ccc(-c2c(-c3ccccc3)noc2COCCCO)cc1` [Example 26a] are 25%, 50% and 85%.
For the molecule `CS(=O)(=O)c1ccc(-c2cc(/C=C/CO)nn2C2CCCCC2)cc1` [Example 31c, 4-(3-((1E)-3-Hydroxyprop-1-enyl)-1-cyclohexylpyrazol-5-yl)-1(methylsulfonyl)benzene], the inhibition at 100 µM at COX-1 (setting [1]) is 10%. Moreover, the inhibition at 1 µM on COX-2 (setting [2]) turned out to be 0%. For the same molecule, on COX-2 (setting [3]), the inhibition at 10 µM came to 15%.
As to `NS(=O)(=O)c1ccc(-c2cc(C(=O)CCCO)nn2C2CCCCC2)cc1` [Example 43g, 4-(1-Cyclohexyl-3-(4-hydroxybutanoyl)pyrazol-5-yl)benzenesulfonamide], at COX-1 (setting [1]), the inhibition at 100 µM was found to be 30%. For the same molecule, the inhibition at 1 µM at COX-2 (setting [2]) was found to be 0%. Moreover, the inhibition at 10 µM on COX-2 (setting [3]) was 10%.
As to `CS(=O)(=O)c1ccc(-c2cc(COCCO[N+](=O)[O-])nn2C2CCCCC2)cc1` [Example 15e, 1-(1-Cyclohexyl-3-((2-(nitrooxy)ethoxy)methyl)pyrazol-5-yl)-4-(methylsulfonyl)benzene], on COX-1 (setting [1]), the inhibition at 100 µM worked out at 35%. The inhibition at 1 µM on COX-2 (setting [2]) turned out to be 35%. The inhibition at 10 µM at COX-2 (setting [3]) was determined as 75%.
Take `CS(=O)(=O)c1ccc(-c2cc(COCCCO)nn2-c2ccc(C(F)(F)F)cc2)cc1` [Example 9d, 1-(3-((3-Hydroxypropoxy)methyl)-1-(4-(trifluoromethyl)phenyl)pyrazol-5-yl)-4-(methylsulfonyl)benzene]: the inhibition at 100 µM on COX-1 (setting [1]) was found to be 40%. Besides, the inhibition at 1 µM on COX-2 (setting [2]) amounted to 30%. For the same molecule, at COX-2 (setting [3]), the inhibition at 10 µM turned out to be 85%.
Regarding `COc1ccc(-n2nc(COCCCO[N+](=O)[O-])cc2-c2ccc(S(C)(=O)=O)cc2)cc1[N+](=O)[O-]` [Example 10e, 1-(1-(4-Methoxy-3-nitrophenyl)-3-((3-(nitrooxy)propoxy)methyl)pyrazol-5-yl)-4-(methylsulfonyl)benzene], on COX-1, the inhibition at 100 µM came to 85%. Moreover, at COX-2, the inhibition at 1 µM amounted to 70% and the inhibition at 10 µM is 100%.
For `CS(=O)(=O)c1ccc(-c2cc(CO)nn2C2CCCCCCC2)cc1` [Example 1g], at COX-1 (setting [1]), the “COX-1 Inhibition (% at 100 μM)” value came to 35%. For the same molecule, at COX-2 (setting [2]), the “COX-2 Inhibition (% at 1 μM)” value is recorded as 35%. For the same molecule, on COX-2 (setting [3]), the “COX-2 Inhibition (% at 10 μM)” value worked out at 75%.
Consider `CS(=O)(=O)c1ccc(-c2cc(C(=O)CCCO)nn2-c2ccc(Br)cc2)cc1` [Example 14d, 1-(1-(4-Bromophenyl)-5-(4-(methylsulfonyl)phenyl)pyrazol-3-yl)-4-hydroxybutan-1-one], for which, on COX-1 (setting [1]), the inhibition at 100 µM turned out to be 0%. In addition, the inhibition at 1 µM at COX-2 (setting [2]) turned out to be 15%. Also, the inhibition at 10 µM at COX-2 (setting [3]) was 70%.
As to `CS(=O)(=O)c1ccc(-c2cc(COCCCO[N+](=O)[O-])nn2-c2ccc(C(F)(F)F)cc2)cc1` [Example 9e, 4-(Methylsulfonyl)-1-(3-((3-(nitrooxy)propoxy)methyl)-1-(4-(trifluoromethyl)phenyl)pyrazol-5-yl)benzene], the inhibition at 100 µM on COX-1 (setting [1]) came out at 45%. Also, the inhibition at 1 µM at COX-2 (setting [2]) was determined as 60%. Further, on COX-2 (setting [3]), the inhibition at 10 µM was 100%.
